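Growth conditions: 96-well plates. Treatment: test compound, 48 hours, 5 concentrations. Analysis: linear interpolation between bracketing concentrations; unreached endpoints set to highest concentration. GI50: concentration for 50% inhibition of growth.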 Calls of active or inactive are those of the source. No stated cut-off is given here; in the data, active = GI50 up to about 1.1 µM and inactive = higher.
How the values were obtained:
Experiment in all cases: NCI-60 cell line screen, 48 h
BT-549 = system: BT-549
CAKI-1 = system: CAKI-1
CCRF-CEM = system: CCRF-CEM
HCT-116 = system: HCT-116
HCT-15 = system: HCT-15
HL-60 = system: HL-60
HT-29 = system: HT-29
K562 = system: K562
LOX IMVI = system: LOX IMVI
MDA-MB-435 = system: MDA-MB-435
NCI-H23 = system: NCI-H23
SF-268 = system: SF-268
SF-539 = system: SF-539
SK-MEL-28 = system: SK-MEL-28
SK-MEL-2 = system: SK-MEL-2
SK-OV-3 = system: SK-OV-3
SW-620 = system: SW-620
T47D = system: T47D
UACC-257 = system: UACC-257
OVCAR-5 = system: OVCAR-5

Row | SMILES | GI50 (BT-549) | GI50 (CAKI-1) | GI50 (CCRF-CEM) | GI50 (HCT-116) | GI50 (HCT-15) | GI50 (HL-60) | GI50 (HT-29) | GI50 (K562) | GI50 (LOX IMVI) | GI50 (MDA-MB-435) | GI50 (NCI-H23) | GI50 (SF-268) | GI50 (SF-539) | GI50 (SK-MEL-28) | GI50 (SK-MEL-2) | GI50 (SK-OV-3) | GI50 (SW-620) | GI50 (T47D) | GI50 (UACC-257) | GI50 (OVCAR-5)
1 | COc1cc(C2c3cc4c(cc3OC(NNC(N)=O)C2C)OCO4)cc(OC)c1OC (configuration not stated) | 2.03 µM (inactive) | 0.634 µM (active) | 0.109 µM (active) | 0.13 µM (active) | 0.274 µM | 0.11 µM (active) | 0.145 µM (active) | 0.0817 µM (active) | 0.145 µM (active) | 0.0586 µM (active) | 0.394 µM (active) | 0.518 µM (active) | 0.0689 µM (active) | 1.12 µM (inactive) | 1.26 µM (inactive) | 1.36 µM (inactive) | 0.142 µM (active) | > 66.4 µM (inactive) | 0.603 µM (active) | –
2 | Cc1cc(C)c2c(c1)CC1(Cc3c(ccc(C)c3C)C1=O)C2=O (configuration not stated) | > 100 µM (inactive) | > 100 µM (inactive) | > 100 µM (inactive) | > 100 µM (inactive) | > 100 µM | > 100 µM (inactive) | > 100 µM (inactive) | > 100 µM (inactive) | – | > 100 µM (inactive) | > 100 µM (inactive) | > 100 µM (inactive) | > 100 µM (inactive) | > 100 µM (inactive) | > 100 µM (inactive) | > 100 µM (inactive) | > 100 µM (inactive) | > 100 µM (inactive) | > 100 µM (inactive) | > 100 µM (inactive)
3 | NC(=O)CCC(CCC(N)=O)(CCC(N)=O)[N+](=O)[O-] | > 100 µM (inactive) | > 100 µM (inactive) | > 10 µM (inactive) | > 100 µM (inactive) | > 100 µM | > 100 µM (inactive) | > 100 µM (inactive) | – | – | > 100 µM (inactive) | > 100 µM (inactive) | > 100 µM (inactive) | > 100 µM (inactive) | – | > 100 µM (inactive) | > 100 µM (inactive) | > 100 µM (inactive) | > 100 µM (inactive) | > 100 µM (inactive) | > 100 µM (inactive)
4 | C[C@]12CC/C(=N\O)C=C1CC[C@@H]1[C@@H]2CC[C@]2(C)C(=N/O)/C(=C/c3ccc([N+](=O)[O-])cc3)C[C@@H]12 | 3.05 µM (inactive) | 2.29 µM (inactive) | 2.5 µM (inactive) | 3.07 µM (inactive) | 3.44 µM | 1.85 µM (inactive) | 4.94 µM (inactive) | 3.37 µM (inactive) | 5.11 µM (inactive) | 3.6 µM (inactive) | 6 µM (inactive) | 3.16 µM (inactive) | 10.4 µM (inactive) | 9.25 µM (inactive) | 3.91 µM (inactive) | 15.5 µM (inactive) | 5.42 µM (inactive) | 1.05 µM (active) | 4.66 µM (inactive) | –
5 | COc1ccc2c(c1)CCCN1Cc3ccccc3CC21 (configuration not stated) | > 100 µM (inactive) | > 100 µM (inactive) | 77.1 µM (inactive) | 52.7 µM (inactive) | > 100 µM | 28.8 µM (inactive) | 32.7 µM (inactive) | 31.3 µM (inactive) | 43.5 µM (inactive) | 54.1 µM (inactive) | > 100 µM (inactive) | > 100 µM (inactive) | 92.7 µM (inactive) | 62.1 µM (inactive) | – | > 100 µM (inactive) | 65.6 µM (inactive) | 33.7 µM (inactive) | 91.2 µM (inactive) | 78.2 µM (inactive)
6 | CCCCCCCCCCCC[C@@H](O)[C@H]1CC[C@H]([C@H](O)CC[C@H](O)[C@@H]2CC[C@@H](CCCCCCCC3=C[C@H](C)OC3=O)O2)O1 | > 50 µM (inactive) | > 50 µM (inactive) | > 38.4 µM (inactive) | 5.58 µM (inactive) | > 50 µM | 1.74 µM (inactive) | > 50 µM (inactive) | – | > 27.2 µM (inactive) | > 50 µM (inactive) | > 18.1 µM (inactive) | > 50 µM (inactive) | > 50 µM (inactive) | > 50 µM (inactive) | > 50 µM (inactive) | > 50 µM (inactive) | > 50 µM (inactive) | > 50 µM (inactive) | > 14.9 µM (inactive) | > 50 µM (inactive)
